Consider 57 compounds from US20260158017A1, “KIF18A INHIBITOR” (WIGEN BIOMEDICINE TECHNOLOGY (SHANGHAI) CO., LTD., priority 2021, published 2026).

For the assay, the target named is T1, Recombinant human KIF18A (1-467His-tagged) protein (Homo sapiens, UniProt Q8NI77).
T1 construct: Recombinant human KIF18A (1-467His-tagged) protein; His; made in house
T1 sequence (Q8NI77 1-467): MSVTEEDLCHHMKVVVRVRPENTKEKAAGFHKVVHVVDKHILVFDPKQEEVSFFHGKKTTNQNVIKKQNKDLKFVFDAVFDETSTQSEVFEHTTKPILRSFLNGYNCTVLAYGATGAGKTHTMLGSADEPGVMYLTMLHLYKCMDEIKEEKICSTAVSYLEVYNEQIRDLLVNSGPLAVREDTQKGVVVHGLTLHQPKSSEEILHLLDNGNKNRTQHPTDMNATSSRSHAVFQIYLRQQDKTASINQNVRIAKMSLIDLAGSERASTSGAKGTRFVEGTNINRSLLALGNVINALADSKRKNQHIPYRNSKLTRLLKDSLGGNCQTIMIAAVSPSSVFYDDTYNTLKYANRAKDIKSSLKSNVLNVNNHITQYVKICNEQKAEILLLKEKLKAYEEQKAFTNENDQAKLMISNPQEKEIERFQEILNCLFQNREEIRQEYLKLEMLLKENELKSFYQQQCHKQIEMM
T1 sequence (P02550 whole entry partner): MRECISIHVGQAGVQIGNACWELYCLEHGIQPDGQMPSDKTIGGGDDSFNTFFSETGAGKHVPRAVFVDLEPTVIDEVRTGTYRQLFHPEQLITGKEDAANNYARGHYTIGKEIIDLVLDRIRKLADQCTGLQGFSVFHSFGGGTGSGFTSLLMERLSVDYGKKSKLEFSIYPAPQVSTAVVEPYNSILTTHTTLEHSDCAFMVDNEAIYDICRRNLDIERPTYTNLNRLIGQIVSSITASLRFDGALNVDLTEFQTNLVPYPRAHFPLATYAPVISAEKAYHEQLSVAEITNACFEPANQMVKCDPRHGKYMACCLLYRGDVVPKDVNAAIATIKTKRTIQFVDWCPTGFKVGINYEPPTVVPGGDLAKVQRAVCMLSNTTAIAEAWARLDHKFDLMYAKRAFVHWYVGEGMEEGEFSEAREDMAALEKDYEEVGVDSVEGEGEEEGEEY
T1 sequence (P02554 whole entry partner): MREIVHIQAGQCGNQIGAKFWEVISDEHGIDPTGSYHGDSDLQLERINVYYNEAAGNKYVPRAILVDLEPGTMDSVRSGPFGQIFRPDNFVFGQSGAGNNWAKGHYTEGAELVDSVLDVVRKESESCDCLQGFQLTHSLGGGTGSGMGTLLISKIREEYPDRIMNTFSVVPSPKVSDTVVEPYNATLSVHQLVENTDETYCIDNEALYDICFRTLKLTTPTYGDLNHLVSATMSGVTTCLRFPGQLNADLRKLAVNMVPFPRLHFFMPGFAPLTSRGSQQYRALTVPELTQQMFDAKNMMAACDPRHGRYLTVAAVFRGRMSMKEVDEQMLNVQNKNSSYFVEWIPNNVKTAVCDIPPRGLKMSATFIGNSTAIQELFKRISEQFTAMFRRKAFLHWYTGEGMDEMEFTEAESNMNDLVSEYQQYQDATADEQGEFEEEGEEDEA
The assay can be described thus: KIF18A enzyme assay (microtubule-stimulated ATPase activity, ADP-Glo). Type of assay: biochemical. To be noted: 30 nM KIF18A, 75 μM ATP, 30 μg/mL pig microtubules; read-out: Inhibitory activity against KIF18A IC50. The gist of the method:
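Buffer 15 mM Tris pH 7.5, 10 mM MgCl2, 0.01% Pluronic F-68, 1 μM paclitaxel, 30 μg/mL pig microtubules; reactions at room temperature. IC50 from inhibition relative to DMSO.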
In general terms: ADP-Glo first removes unused ATP, then detects ADP through luciferase.
Take `CC1(F)CCN(c2nc(NC(=O)c3ccc(S(=O)(=O)NCCO)cc3N3CCC4(CC3)CC4)ccc2[N+](=O)[O-])C1` (stereo not drawn) [Compound 88]: the IC50 was no more than 100 nM.

Turning to `C[C@@H]1CN(c2cc(NC(=O)c3cnc(NS(=O)(=O)[C@H](C)CO)cc3N3CCC4(CC3)CC4)ccc2[N+](=O)[O-])CCO1` [Compound 112], the IC50 was no more than 100 nM.

Consider `COc1ccc(C(=O)Nc2ccc(S(=O)(=O)NCCO)cc2N2CCC3(CC2)CC3)nc1OCCC(F)(F)F` [Compound 341], for which the IC50 is no more than 100 nM.

Take `O=C(Nc1ccc([N+](=O)[O-])c(OCCC(F)(F)F)n1)c1cnc(S(=O)(=O)NCCO)cc1N1CCC2(CC1)CC2` [Compound 149]: the IC50 is no more than 100 nM.

Turning to `C[C@@H]1CN(c2cc(C(=O)Nc3cnc(NS(=O)(=O)[C@@H](C)CO)cc3N3CCC4(CC3)CC4)ccc2[N+](=O)[O-])CCO1` [Compound 207], the IC50 was no more than 100 nM.

`COc1ccc(NC(=O)c2ccc(S(=O)(=O)N[C@H](C)CO)cc2N2CCC3(CC2)CC3)nc1N1CCC(F)(F)CC1` [Compound 286]: the IC50 is no more than 100 nM.

With `CC1(F)CCN(c2cc(NC(=O)c3ccc(S(=O)(=O)NCCO)cc3N3CCC4(CC3)CC4)ccc2OCF)C1` (stereo not drawn) [Compound 408], the IC50 is no more than 100 nM.

For `COc1ccc(C(=O)Nc2ccc(NS(=O)(=O)CCO)cc2N2CCC3(CC2)CC3)nc1N1CC(F)(F)C1` [Compound 324], the IC50 was no more than 100 nM.

In the case of `C[C@@H]1CN(c2nc(NC(=O)c3cnc(S(=O)(=O)N[C@@H](C)CO)cc3N3CCC4(CC3)CC4)ccc2OCF)CCO1` [Compound 511], the IC50 is no more than 100 nM.

Consider `C[C@@H](CO)S(=O)(=O)Nc1cc(N2CCC3(CC2)CC3)c(C(=O)Nc2ccc([N+](=O)[O-])c(N3CCC(F)(F)CC3)n2)cn1` [Compound 141], for which the IC50 is no more than 100 nM.

`COc1ccc(C(=O)Nc2ccc(S(=O)(=O)NCCO)cc2N2CCC3(CC2)CC3)nc1N1CCC(F)CC1` [Compound 345]: the IC50 is no more than 100 nM.

For the compound `O=C(Nc1ccc(OCF)c(N2CCC(F)(F)CC2)n1)c1cnc(NS(=O)(=O)CCO)cc1N1CCC2(CC1)CC2` [Compound 481], the IC50 was no more than 100 nM.

Turning to `O=C(Nc1ccc([N+](=O)[O-])c(N2CCC3(CC3)C2)c1)c1cnc(NS(=O)(=O)CCO)cc1N1CCC2(CC1)CC2` [Compound 102], the IC50 is no more than 100 nM.

On to `C[C@@H]1CN(c2cc(NC(=O)c3cnc(NS(=O)(=O)[C@@H](C)CO)cc3N3CCC4(CC3)CC4)ccc2OCF)CCO1` [Compound 463], for which the IC50 was no more than 100 nM.

With `COc1ccc(NC(=O)c2cnc(NS(=O)(=O)CCO)cc2N2CCC3(CC2)CC3)nc1N1CCO[C@H](C)C1` [Compound 290], the IC50 was no more than 100 nM.

Consider `C[C@H](CO)NS(=O)(=O)c1cc(N2CCC3(CC2)CC3)c(C(=O)Nc2ccc(OCF)c(N3CCO[C@H](C)C3)n2)cn1` [Compound 512], for which the IC50 is no more than 100 nM.

Consider `O=C(Nc1ccc([N+](=O)[O-])c(OC2CCC2)n1)c1ccc(NS(=O)(=O)CCO)cc1N1CCC2(CC1)CC2` [Compound 71], for which the IC50 is no more than 100 nM.

On to `C[C@@H]1CN(c2nc(C(=O)Nc3ccc(S(=O)(=O)NCCO)cc3N3CCC4(CC3)CC4)ccc2[N+](=O)[O-])CCO1` [Compound 178], for which the IC50 was in the range of 100 to 500 nM.

For the compound `C[C@H]1CN(c2cc(NC(=O)c3cnc(S(=O)(=O)NCCO)cc3N3CCC4(CC3)CC4)ccc2OCF)CCO1` [Compound 467], the IC50 is no more than 100 nM.

On to `C[C@H](CO)NS(=O)(=O)c1ccc(NC(=O)c2ccc(OCF)c(N3CCC(F)(F)CC3)c2)c(N2CCC3(CC2)CC3)c1` [Compound 542], for which the IC50 is 100 to 500 nM.

Consider `O=C(Nc1cnc(NS(=O)(=O)CCO)cc1N1CCC2(CC1)CC2)c1ccc([N+](=O)[O-])c(N2CCOCC2)n1` [Compound 236], for which the IC50 was no more than 100 nM.

For the compound `C[C@@H]1CN(c2nc(C(=O)Nc3cnc(S(=O)(=O)NCCO)cc3N3CCC4(CC3)CC4)ccc2[N+](=O)[O-])CCO1` [Compound 242], the IC50 is 100 to 500 nM.

Turning to `C[C@@H]1CN(c2cc(NC(=O)c3cnc(NS(=O)(=O)CCO)cc3N3CCC4(CC3)CC4)ccc2OCF)CCO1` [Compound 450], the IC50 is no more than 100 nM.

As for `O=C(Nc1ccc(OCF)c(N2CCOCC2)n1)c1cnc(NS(=O)(=O)CCO)cc1N1CCC2(CC1)CC2` [Compound 492], the IC50 is no more than 100 nM.

On to `CC(C)(CO)Nc1cc(NC(=O)c2ccc(S(=O)(=O)NCCO)cc2N2CCC3(CC2)CC3)ccc1OCF` [Compound 411], for which the IC50 is no more than 100 nM.

For the compound `O=C(Nc1ccc(OCF)c(N2CCC(F)CC2)c1)c1ccc(S(=O)(=O)NCCO)cc1N1CCC2(CC1)CC2` [Compound 409], the IC50 is no more than 100 nM.

Consider `COc1ccc(C(=O)Nc2cnc(S(=O)(=O)NCCO)cc2N2CCC3(CC2)CC3)nc1N1CCO[C@@H](C)C1` [Compound 371], for which the IC50 is no more than 100 nM.

As for `C[C@@H](CO)NS(=O)(=O)c1ccc(NC(=O)c2ccc(OCF)c(N3CCC(F)(F)CC3)n2)c(N2CCC3(CC2)CC3)c1` [Compound 573], the concentration for half-maximal inhibition (IC50) fell in the range of 100 to 500 nM.

`COc1ccc(C(=O)Nc2cnc(S(=O)(=O)NCCO)cc2N2CCC3(CC2)CC3)nc1N1CCC(C)(F)C1` (stereo not drawn) [Compound 376]: the IC50 was no more than 100 nM.

In the case of `O=C(Nc1cnc(NS(=O)(=O)CCO)cc1N1CCC2(CC1)CC2)c1ccc([N+](=O)[O-])c(N2CCC(F)CC2)c1` [Compound 201], the IC50 was no more than 100 nM.

Turning to `O=C(Nc1cnc(NS(=O)(=O)CCO)cc1N1CCC2(CC1)CC2)c1ccc([N+](=O)[O-])c(N2CCC(F)CC2)n1` [Compound 233], the IC50 was no more than 100 nM.

For `O=C(Nc1ccc(OCF)c(N2CCC(F)CC2)c1)c1cnc(S(=O)(=O)NCCO)cc1N1CCC2(CC1)CC2` [Compound 473], the half-inhibitory concentration (IC50) was no more than 100 nM.

Take `CSc1ccc(NC(=O)c2cnc(NS(=O)(=O)CCO)cc2N2CCC3(CC2)CC3)nc1N1CC2CC2C1` (stereo not drawn) [Compound 634]: the IC50 was no more than 100 nM.

Regarding `O=C(Nc1ccc(S(=O)(=O)NCCO)cc1N1CCC2(CC1)CC2)c1ccc([N+](=O)[O-])c(OC2CCC2)n1` [Compound 183], the IC50 lay in the range of 100 to 500 nM.

Take `O=C(Nc1ccc(OCF)c(N2CC3CC3C2)c1)c1cnc(S(=O)(=O)NCCO)cc1N1CCC2(CC1)CC2` (stereo not drawn) [Compound 474]: the IC50 was no more than 100 nM.

As to `O=C(Nc1cnc(S(=O)(=O)NCCO)cc1N1CCC2(CC1)CC2)c1ccc([N+](=O)[O-])c(N2CC(F)(F)C2)n1` [Compound 244], the IC50 lay within 100 to 500 nM.

For `O=C(Nc1ccc(S(=O)(=O)NCCO)cc1N1CCC2(CC1)CC2)c1ccc([N+](=O)[O-])c(N2CC(F)(F)C2)c1` [Compound 52], the IC50 fell in the range of 100 to 500 nM.

Regarding `O=C(Nc1ccc(OCF)c(N2CCC(F)CC2)n1)c1ccc(S(=O)(=O)NCCO)cc1N1CCC2(CC1)CC2` [Compound 441], the IC50 is no more than 100 nM.

With `C[C@H](CO)S(=O)(=O)Nc1ccc(NC(=O)c2ccc([N+](=O)[O-])c(N3CCC(F)(F)CC3)c2)c(N2CCC3(CC2)CC3)c1` [Compound 46], the IC50 lay in the range of 100 to 500 nM.

Regarding `C[C@@H]1CN(c2cc(NC(=O)c3cnc(S(=O)(=O)N[C@@H](C)CO)cc3N3CCC4(CC3)CC4)ccc2OCF)CCO1` [Compound 479], the IC50 is no more than 100 nM.

Turning to `COc1ccc(NC(=O)c2ccc(S(=O)(=O)N[C@@H](C)CO)cc2N2CCC3(CC2)CC3)nc1N1CCC(F)(F)CC1` [Compound 285], the IC50 is no more than 100 nM.

Consider `O=C(Nc1ccc(NS(=O)(=O)CCO)cc1N1CCC2(CC1)CC2)c1ccc([N+](=O)[O-])c(N2CCOCC2)c1` [Compound 44], for which the IC50 was no more than 100 nM.

In the case of `C[C@H]1CN(c2nc(NC(=O)c3cnc(S(=O)(=O)NCCO)cc3N3CCC4(CC3)CC4)ccc2[N+](=O)[O-])CCO1` [Compound 147], the IC50 is no more than 100 nM.

As for `CSc1ccc(NC(=O)c2ccc(NS(=O)(=O)CCO)cc2N2CCC3(CC2)CC3)nc1N1CCC2(CC2)C1` [Compound 598], the IC50 was no more than 100 nM.

With `O=C(Nc1ccc(OCF)c(N2CCOCC2)n1)c1ccc(S(=O)(=O)NCCO)cc1N1CCC2(CC1)CC2` [Compound 444], the IC50 is no more than 100 nM.

On to `O=C(Nc1ccc(OCF)c(OCCC(F)(F)F)c1)c1ccc(NS(=O)(=O)CCO)cc1N1CCC2(CC1)CC2` [Compound 389], for which the IC50 was no more than 100 nM.

As to `C[C@@H]1CN(c2cc(NC(=O)c3cnc(NS(=O)(=O)CCO)cc3N3CCC4(CC3)CC4)ccc2[N+](=O)[O-])CCO1` [Compound 98], the IC50 was no more than 100 nM.

With `O=C(Nc1ccc(S(=O)(=O)NCCO)cc1N1CCC2(CC1)CC2)c1ccc([N+](=O)[O-])c(OCCC(F)(F)F)n1` [Compound 181], the IC50 fell in the range of 100 to 500 nM.

For the compound `O=C(Nc1ccc(S(=O)(=O)NCCO)cc1N1CCC2(CC1)CC2)c1ccc(OCF)c(N2CCOCC2)n1` [Compound 572], the half-inhibitory concentration (IC50) lay within 100 to 500 nM.

`CC1(F)CCN(c2cc(C(=O)Nc3ccc(NS(=O)(=O)CCO)cc3N3CCC4(CC3)CC4)ccc2OCF)C1` (stereo not drawn) [Compound 520]: the IC50 was no more than 100 nM.

Regarding `COc1ccc(NC(=O)c2cnc(S(=O)(=O)NCCO)cc2N2CCC3(CC2)CC3)nc1N1CCO[C@H](C)C1` [Compound 306], the IC50 was no more than 100 nM.

As for `CSc1ccc(NC(=O)c2cnc(NS(=O)(=O)CCO)cc2N2CCC3(CC2)CC3)cc1N1CCOCC1` [Compound 620], the IC50 is no more than 100 nM.

Turning to `COc1ccc(C(=O)Nc2cnc(S(=O)(=O)N[C@@H](C)CO)cc2N2CCC3(CC2)CC3)nc1N1CCC(F)(F)CC1` [Compound 381], the IC50 was no more than 100 nM.

Regarding `C[C@H]1CN(c2nc(NC(=O)c3cnc(NS(=O)(=O)CCO)cc3N3CCC4(CC3)CC4)ccc2[N+](=O)[O-])CCO1` [Compound 131], the IC50 is no more than 100 nM.

On to `O=C(Nc1ccc([N+](=O)[O-])c(N2CC(F)(F)C2)n1)c1ccc(S(=O)(=O)NCCO)cc1N1CCC2(CC1)CC2` [Compound 84], for which the IC50 was no more than 100 nM.

Consider `COc1ccc(C(=O)Nc2ccc(NS(=O)(=O)[C@@H](C)CO)cc2N2CCC3(CC2)CC3)nc1N1CCC(F)(F)CC1` [Compound 333], for which the IC50 is no more than 100 nM.

In the case of `C[C@@H]1CN(c2nc(C(=O)Nc3cnc(NS(=O)(=O)CCO)cc3N3CCC4(CC3)CC4)ccc2[N+](=O)[O-])CCO1` [Compound 226], the IC50 is no more than 100 nM.

For orientation: IC50 means the concentration that inhibits the measured activity by half.
